# PMC6272674, “Selected Compounds Structurally Related to Acyclic Sesquiterpenoids and Their Antibacterial and Cytotoxic Activity” (Molecules, 2015)
# Test system: Staphylococcus aureus ATCC 43300
# Experiment: Micro-dilution broth MIC, Staphylococcus aureus
# Format: cell-based
# Settings: ATCC43300, 24 h, 37 °C, read-out: Minimum Inhibitory Concentrations MIC
# Procedure: (§1) The standard strains, Gram-positive: Staphylococcus aureus ATCC […], Enterococcus faecalis Van B ATCC 51299 and Enterococcus faecium VA sensitive ATCC 35667, and Gram-negative: Escherichia coli ATCC 25922, Klebsiella pneumoniae ATCC 700603 and Acinetobacter baumannii ATCC 19606, came from a collection of the Environmental Biology Department, Medical University of Łódź. The standard strains were cultivated in Columbia Agar Medium and incubated at 37 °C for 24 h in aerobic conditions.
# (§2) The antibacterial activity of the racemates and E/Z-mixtures was investigated using the micro‑dilution broth method. The compounds were diluted in ethanol. This stock solution was mixed with 100 µL of Mueller-Hinton broth to obtain concentrations from 10 µg/mL to 80 µg/mL. The mixtures were then transferred to 96-well microtiter plates. The microbial suspension was standardised to a cell density of 1.5 × 10^8 CFU, which was equal to an optical density of 0.5 on the Mc Farland scale by a bio-Merieux densitometer; one well was filled with broth only to act as a control for strain growth.
row,MIC,SMILES
1,22 µg/mL,"CC(=CC=O)CCC=C(C)C(C)CCCC(C)C (stereo not drawn) [Compound 20, 3,7,8,12-Tetramethyltrideca-2,6-dienal]"
2,32 µg/mL,"CC(C)=CCCC(C)CC(C)=CC=O (stereo not drawn) [Compound 21, 3,5,9-Trimethyldeca-2,8-dienal]"
3,26 µg/mL,"CC(C)=CCCC(C)CCC(C)=CC=O (stereo not drawn) [Compound 22, 3,6,10-Trimethylundeca-2,9-dienal]"
4,28 µg/mL,"CC(C)=CCCC(C)CC(C)C(C)=CC=O (stereo not drawn) [Compound 23, 3,4,6,10-Tetramethylundeca-2,9-dienal]"

# Test system: Enterococcus faecalis ATCC 51299
# Experiment: Micro-dilution broth MIC, Enterococcus faecalis
# Format: cell-based
# Settings: ATCC51299, 24 h, 37 °C, read-out: Minimum Inhibitory Concentrations MIC
# Procedure: as §1, §2
row,MIC,SMILES
1,20 µg/mL,"CC(=CC=O)CCC=C(C)C(C)CCCC(C)C (stereo not drawn) [Compound 20, 3,7,8,12-Tetramethyltrideca-2,6-dienal]"
2,38 µg/mL,"CC(C)=CCCC(C)CC(C)=CC=O (stereo not drawn) [Compound 21, 3,5,9-Trimethyldeca-2,8-dienal]"
3,24 µg/mL,"CC(C)=CCCC(C)CCC(C)=CC=O (stereo not drawn) [Compound 22, 3,6,10-Trimethylundeca-2,9-dienal]"
4,26 µg/mL,"CC(C)=CCCC(C)CC(C)C(C)=CC=O (stereo not drawn) [Compound 23, 3,4,6,10-Tetramethylundeca-2,9-dienal]"

# Test system: Enterococcus faecium ATCC 35667
# Experiment: Micro-dilution broth MIC, Enterococcus faecium
# Format: cell-based
# Settings: ATCC35667, 24 h, 37 °C, read-out: Minimum Inhibitory Concentrations MIC
# Procedure: as §1, §2
row,MIC,SMILES
1,32 µg/mL,"CC(=CC=O)CCC=C(C)C(C)CCCC(C)C (stereo not drawn) [Compound 20, 3,7,8,12-Tetramethyltrideca-2,6-dienal]"
2,42 µg/mL,"CC(C)=CCCC(C)CC(C)=CC=O (stereo not drawn) [Compound 21, 3,5,9-Trimethyldeca-2,8-dienal]"
3,46 µg/mL,"CC(C)=CCCC(C)CCC(C)=CC=O (stereo not drawn) [Compound 22, 3,6,10-Trimethylundeca-2,9-dienal]"
4,36 µg/mL,"CC(C)=CCCC(C)CC(C)C(C)=CC=O (stereo not drawn) [Compound 23, 3,4,6,10-Tetramethylundeca-2,9-dienal]"

# Test system: Escherichia coli ATCC 25922
# Experiment: Micro-dilution broth MIC, Escherichia coli
# Format: cell-based
# Settings: ATCC25922, 24 h, 37 °C, read-out: Minimum Inhibitory Concentrations MIC
# Procedure: as §1, §2
row,MIC,SMILES
1,48 µg/mL,"CC(=CC=O)CCC=C(C)C(C)CCCC(C)C (stereo not drawn) [Compound 20, 3,7,8,12-Tetramethyltrideca-2,6-dienal]"
2,54 µg/mL,"CC(C)=CCCC(C)CC(C)=CC=O (stereo not drawn) [Compound 21, 3,5,9-Trimethyldeca-2,8-dienal]"
3,44 µg/mL,"CC(C)=CCCC(C)CCC(C)=CC=O (stereo not drawn) [Compound 22, 3,6,10-Trimethylundeca-2,9-dienal]"
4,46 µg/mL,"CC(C)=CCCC(C)CC(C)C(C)=CC=O (stereo not drawn) [Compound 23, 3,4,6,10-Tetramethylundeca-2,9-dienal]"

# Test system: Klebsiella pneumoniae ATCC 700603
# Experiment: Micro-dilution broth MIC, Klebsiella pneumoniae
# Format: cell-based
# Settings: ATCC700603, 24 h, 37 °C, read-out: Minimum Inhibitory Concentrations MIC
# Procedure: as §1, §2
row,MIC,SMILES
1,38 µg/mL,"CC(=CC=O)CCC=C(C)C(C)CCCC(C)C (stereo not drawn) [Compound 20, 3,7,8,12-Tetramethyltrideca-2,6-dienal]"
2,48 µg/mL,"CC(C)=CCCC(C)CC(C)=CC=O (stereo not drawn) [Compound 21, 3,5,9-Trimethyldeca-2,8-dienal]"
3,36 µg/mL,"CC(C)=CCCC(C)CCC(C)=CC=O (stereo not drawn) [Compound 22, 3,6,10-Trimethylundeca-2,9-dienal]"
4,34 µg/mL,"CC(C)=CCCC(C)CC(C)C(C)=CC=O (stereo not drawn) [Compound 23, 3,4,6,10-Tetramethylundeca-2,9-dienal]"

# Test system: Acinetobacter baumannii ATCC 19606
# Experiment: Micro-dilution broth MIC, Acinetobacter baumannii
# Format: cell-based
# Settings: ATCC19606, 24 h, 37 °C, read-out: Minimum Inhibitory Concentrations MIC
# Procedure: as §1, §2
row,MIC,SMILES
1,38 µg/mL,"CC(=CC=O)CCC=C(C)C(C)CCCC(C)C (stereo not drawn) [Compound 20, 3,7,8,12-Tetramethyltrideca-2,6-dienal]"
2,52 µg/mL,"CC(C)=CCCC(C)CC(C)=CC=O (stereo not drawn) [Compound 21, 3,5,9-Trimethyldeca-2,8-dienal]"
3,36 µg/mL,"CC(C)=CCCC(C)CCC(C)=CC=O (stereo not drawn) [Compound 22, 3,6,10-Trimethylundeca-2,9-dienal]"
4,36 µg/mL,"CC(C)=CCCC(C)CC(C)C(C)=CC=O (stereo not drawn) [Compound 23, 3,4,6,10-Tetramethylundeca-2,9-dienal]"

# Test system: Malignant Melanoma MEWO
# Experiment: MTT viability, MEWO
# Format: cell-based, human
# Settings: Homo sapiens, 24 h, range 10–1000 µM, read-out: half maximal inhibitory concentration (IC50), interpolated
# Procedure: (§3) Cell lines and in vitro culture conditions: The human promyelocytic leukaemia cell line HL-60 was obtained from the Centre of Molecular and Macromolecular Biology in Łódź, Poland and was cultured in RPMI 1640 medium with 20% heat-inactivated fetal bovine serum (FBS). To reduce spontaneous differentiation, the cells were never allowed to exceed a concentration of 1.0 × 10^6 cells/mL. The human keratinocyte cell line HaCaT was obtained from Cell Lines Service, Germany (CLS) and cultured in DMEM medium with 10% FBS. Human colorectal adenocarcinoma HT29 and normal epithelial IEC-6 cell lines (from ATCC) were cultured in DMEM medium with 10% FBS. The human skin melanoma cell line MEWO (from CLS) was cultured in DMEM:F12 supplemented with 2 mM L-glutamine and 10% FBS. Human fibroblasts from gingiva isolated from original tissue, HFIB-G, (from Provitro) were cultured in Quantum 333 (from Immunique). The media were supplemented with 100 U/mL penicillin and 100 µg/mL streptomycin; all media components were obtained from Life Technologies. The adherent cell lines used in the studies were seeded on microplates before they exceeded 80% of confluence. Cells were cultured at 37 °C in 5% CO2 air atmosphere/95% air atmosphere.
# (§4) Cytotoxic activity: The cells (the density for HL-60 was 0.5 × 10^4 cells/100 µL, otherwise it was 1 × 10^4 cells/100 µL) were plated into each well of 96-well microtiter plates and, after their attachment to the plate surface, treated with 10 µL of the indicated concentrations of compounds for 24 h. Viability was determined by MTT assay following the treatment. MTT (3-[4.5-dimethylthiazol-2-yl]-2.5-diphenyltetrazolium bromide; Sigma, St. Louis, MO, USA) solution was added to each well and incubated for another 4 h. The resulting MTT-formazan product was dissolved by the addition of lysis buffer (20% SDS and 50% DMF). The amount of formazan was determined by measuring absorbance at 570 nm with a Synergy 2 microplate reader (BioTek, Winooski, VT, USA) operated by the Gen5 program. The experiments were conducted three times with five replications. The results are expressed as an optical density ratio of the treatment to control. All data are presented as means ± SD.
row,IC50,SMILES
1,690 µM,"CC(=CC=O)CCC=C(C)C(C)CCCC(C)C (stereo not drawn) [Compound 20, 3,7,8,12-Tetramethyltrideca-2,6-dienal]"
2,640 µM,"CC(C)=CCCC(C)CC(C)=CC=O (stereo not drawn) [Compound 21, 3,5,9-Trimethyldeca-2,8-dienal]"
3,700 µM,"CC(C)=CCCC(C)CCC(C)=CC=O (stereo not drawn) [Compound 22, 3,6,10-Trimethylundeca-2,9-dienal]"
4,730 µM,"CC(C)=CCCC(C)CC(C)C(C)=CC=O (stereo not drawn) [Compound 23, 3,4,6,10-Tetramethylundeca-2,9-dienal]"

# Test system: not listed separately
# Experiment: MTT viability, HT29
# Format: cell-based, human
# Settings: human, HT29 colorectal adenocarcinoma cells, 1000 µM (IC50 exceeded 1000 µM), read-out: viability ± standard deviation at 1000 µM
# Procedure: as §3, §4
row,SMILES,"viability at 24 h, 1000 µM"
1,"CC(=CC=O)CCC=C(C)C(C)CCCC(C)C (stereo not drawn) [Compound 20, 3,7,8,12-Tetramethyltrideca-2,6-dienal]",82%
2,"CC(C)=CCCC(C)CC(C)=CC=O (stereo not drawn) [Compound 21, 3,5,9-Trimethyldeca-2,8-dienal]",98%
3,"CC(C)=CCCC(C)CCC(C)=CC=O (stereo not drawn) [Compound 22, 3,6,10-Trimethylundeca-2,9-dienal]",93%
4,"CC(C)=CCCC(C)CC(C)C(C)=CC=O (stereo not drawn) [Compound 23, 3,4,6,10-Tetramethylundeca-2,9-dienal]",87%

# Test system: Promyelocytic Leukaemia HL-60
# Experiment: MTT viability, HL-60
# Format: cell-based, human
# Settings: Homo sapiens, HL-60, 24 h, HL-60, MTT, range 10–1000 µM, read-out: half maximal inhibitory concentration (IC50), interpolated
# Procedure: as §3, §4
row,IC50,SMILES
1,480 µM,"CC(=CC=O)CCC=C(C)C(C)CCCC(C)C (stereo not drawn) [Compound 20, 3,7,8,12-Tetramethyltrideca-2,6-dienal]"
2,600 µM,"CC(C)=CCCC(C)CC(C)=CC=O (stereo not drawn) [Compound 21, 3,5,9-Trimethyldeca-2,8-dienal]"
3,600 µM,"CC(C)=CCCC(C)CCC(C)=CC=O (stereo not drawn) [Compound 22, 3,6,10-Trimethylundeca-2,9-dienal]"
4,630 µM,"CC(C)=CCCC(C)CC(C)C(C)=CC=O (stereo not drawn) [Compound 23, 3,4,6,10-Tetramethylundeca-2,9-dienal]"

# Test system: Fibroblasts HFIG
# Experiment: MTT viability, HFIG
# Format: cell-based, human
# Settings: Homo sapiens, Fibroblast, 24 h, range 10–1000 µM, read-out: half maximal inhibitory concentration (IC50), interpolated
# Procedure: as §3, §4
row,SMILES,IC50
1,"CC(=CC=O)CCC=C(C)C(C)CCCC(C)C (stereo not drawn) [Compound 20, 3,7,8,12-Tetramethyltrideca-2,6-dienal]",610 µM
2,"CC(C)=CCCC(C)CC(C)=CC=O (stereo not drawn) [Compound 21, 3,5,9-Trimethyldeca-2,8-dienal]",830 µM
3,"CC(C)=CCCC(C)CCC(C)=CC=O (stereo not drawn) [Compound 22, 3,6,10-Trimethylundeca-2,9-dienal]",740 µM
4,"CC(C)=CCCC(C)CC(C)C(C)=CC=O (stereo not drawn) [Compound 23, 3,4,6,10-Tetramethylundeca-2,9-dienal]",800 µM

# Test system: Keratinocytes HaCaT
# Experiment: MTT viability, HaCaT
# Format: cell-based, human
# Settings: Homo sapiens, 24 h, range 10–1000 µM, read-out: half maximal inhibitory concentration (IC50), interpolated
# Procedure: as §3, §4
row,SMILES,IC50
1,"CC(=CC=O)CCC=C(C)C(C)CCCC(C)C (stereo not drawn) [Compound 20, 3,7,8,12-Tetramethyltrideca-2,6-dienal]",850 µM
2,"CC(C)=CCCC(C)CC(C)=CC=O (stereo not drawn) [Compound 21, 3,5,9-Trimethyldeca-2,8-dienal]",830 µM
3,"CC(C)=CCCC(C)CCC(C)=CC=O (stereo not drawn) [Compound 22, 3,6,10-Trimethylundeca-2,9-dienal]",880 µM
4,"CC(C)=CCCC(C)CC(C)C(C)=CC=O (stereo not drawn) [Compound 23, 3,4,6,10-Tetramethylundeca-2,9-dienal]",900 µM

# Test system: not listed separately
# Experiment: MTT viability, IEC6
# Format: cell-based
# Settings: rat, IEC-6 small intestine epithelial cells, 1000 µM (IC50 exceeded 1000 µM), read-out: viability ± standard deviation at 1000 µM
# Procedure: as §3, §4
row,SMILES,"viability at 24 h, 1000 µM"
1,"CC(=CC=O)CCC=C(C)C(C)CCCC(C)C (stereo not drawn) [Compound 20, 3,7,8,12-Tetramethyltrideca-2,6-dienal]",64%
2,"CC(C)=CCCC(C)CC(C)=CC=O (stereo not drawn) [Compound 21, 3,5,9-Trimethyldeca-2,8-dienal]",91%
3,"CC(C)=CCCC(C)CCC(C)=CC=O (stereo not drawn) [Compound 22, 3,6,10-Trimethylundeca-2,9-dienal]",76%
4,"CC(C)=CCCC(C)CC(C)C(C)=CC=O (stereo not drawn) [Compound 23, 3,4,6,10-Tetramethylundeca-2,9-dienal]",82%
